Data: patent US7566712B2, “Biaryl piperazinyl-pyridine analogues” (Neurogen Corporation, priority 2003, dated 2009)

Molecular target: T1, human capsaicin receptor (Homo sapiens, UniProt Q8NER1)
T1 construct: pBK-CMV expression construct encoding the full length human capsaicin receptor; expressed in transfected cells
Assay: Calcium mobilization assay, determination of antagonist activity (Example 6)
Type: cell-based
Details: Table II; IC50 determined as described in Example 6
Summary of the method: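 HEK293 clonal lines stably expressing full-length human capsaicin receptor, loaded with Fluo-3 AM in KRH buffer pH 7.4, 1–2 h at 37 °C. Compounds (1–5 μM final) preincubated 0.5–6 h at room temperature, then capsaicin at its EC50 added. FLIPR/Fluoroskan calcium signal; IC50 as 50% decrease of capsaicin response.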

T1 sequence (Q8NER1 whole entry): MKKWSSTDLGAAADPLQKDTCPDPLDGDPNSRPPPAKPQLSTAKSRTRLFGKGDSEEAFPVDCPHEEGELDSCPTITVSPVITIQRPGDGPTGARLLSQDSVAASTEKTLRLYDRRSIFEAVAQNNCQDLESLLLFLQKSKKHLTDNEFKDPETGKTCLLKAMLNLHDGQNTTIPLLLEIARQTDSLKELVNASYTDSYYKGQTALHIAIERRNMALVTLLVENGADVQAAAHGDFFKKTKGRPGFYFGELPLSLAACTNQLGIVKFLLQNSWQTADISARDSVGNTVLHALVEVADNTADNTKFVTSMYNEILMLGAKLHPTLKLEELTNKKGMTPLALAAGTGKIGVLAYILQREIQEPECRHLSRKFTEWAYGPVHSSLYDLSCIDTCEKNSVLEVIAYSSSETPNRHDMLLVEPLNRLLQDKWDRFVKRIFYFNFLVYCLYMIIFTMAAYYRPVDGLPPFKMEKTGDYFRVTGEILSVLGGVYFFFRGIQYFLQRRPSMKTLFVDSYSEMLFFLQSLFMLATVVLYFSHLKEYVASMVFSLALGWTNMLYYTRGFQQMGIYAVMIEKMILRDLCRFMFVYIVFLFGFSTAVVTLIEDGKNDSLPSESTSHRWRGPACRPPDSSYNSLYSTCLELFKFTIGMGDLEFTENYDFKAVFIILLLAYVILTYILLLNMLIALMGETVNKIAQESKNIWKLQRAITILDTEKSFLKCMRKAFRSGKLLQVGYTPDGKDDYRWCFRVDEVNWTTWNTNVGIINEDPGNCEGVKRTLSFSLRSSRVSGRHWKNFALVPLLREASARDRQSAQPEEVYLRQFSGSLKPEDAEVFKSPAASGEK

IC50 | SMILES
≤ 1000 nM | Cc1cccnc1N1CCN(c2cc(-c3ccc(Cl)cc3)nc(N3CCOCC3)n2)[C@H](C)C1 [Example 483, 4-{4-(4-chlorophenyl)-6-[(2R)-2-methyl-4-(3-methylpyridin-2-yl)piperazin-1-yl]pyrimidin-2-yl}morpholine]
≤ 1000 nM | C[C@@H]1CN(c2ncccc2C(F)(F)F)CCN1c1cc(-c2ccc(Cl)cc2)nc(N2CCOCC2)n1 [Example 484, 4-(4-(4-chlorophenyl)-6-{(2R)-2-methyl-4-[3-(trifluoromethyl)pyridin-2-yl]piperazin-1-yl}pyrimidin-2-yl)morpholine]
≤ 1000 nM | C[C@@H]1CN(c2ncccc2Cl)CCN1c1cc(-c2ccc(Cl)cc2)nc(N2CCOCC2)n1 [Example 485, 4-{4-(4-chlorophenyl)-6-[(2R)-4-(3-chloropyridin-2-yl)-2-methylpiperazin-1-yl]pyrimidin-2-yl}morpholine]
≤ 1000 nM | C[C@@H]1CN(c2ncccc2C#N)CCN1c1cc(-c2ccc(F)cc2)nc(N2CCOCC2)n1 [Example 486, 2-{(3R)-4-[6-(4-fluorophenyl)-2-morpholin-4-ylpyrimidin-4-yl]-3-methylpiperazin-1-yl}nicotinonitrile]
≤ 1000 nM | C[C@@H]1CN(c2ncccc2Cl)CCN1c1cc(-c2ccc(F)cc2)nc(N2CCOCC2)n1 [Example 487, 4-[4-[(2R)-4-(3-chloropyridin-2-yl)-2-methylpiperazin-1-yl]-6-(4-fluorophenyl)pyrimidin-2-yl]morpholine]
≤ 1000 nM | C[C@@H]1CN(c2ncccc2Cl)CCN1c1cc(-c2cccc(F)c2)nc(N2CCOCC2)n1 [Example 488, 4-[4-[(2R)-4-(3-chloropyridin-2-yl)-2-methylpiperazin-1-yl]-6-(3-fluorophenyl)pyrimidin-2-yl]morpholine]
≤ 1000 nM | C[C@@H]1CN(c2ncccc2C#N)CCN1c1cc(-c2ccc3ccccc3c2)nc(N2CCOCC2)n1 [Example 489, 2-{(3R)-3-methyl-4-[2-morpholin-4-yl-6-(2-naphthyl)pyrimidin-4-yl]piperazin-1-yl}nicotinonitrile]
≤ 1000 nM | Cc1cccnc1N1CCN(c2cc(-c3ccc4ccccc4c3)nc(N3CCOCC3)n2)[C@H](C)C1 [Example 490, 4-[4-[(2R)-2-methyl-4-(3-methylpyridin-2-yl)piperazin-1-yl]-6-(2-naphthyl)pyrimidin-2-yl]morpholine]
≤ 1000 nM | C[C@@H]1CN(c2ncccc2C(F)(F)F)CCN1c1cc(-c2ccc3ccccc3c2)nc(N2CCOCC2)n1 [Example 491, 4-[4-{(2R)-2-methyl-4-[3-(trifluoromethyl)pyridin-2-yl]piperazin-1-yl}-6-(2-naphthyl)pyrimidin-2-yl]morpholine]
≤ 1000 nM | C[C@@H]1CN(c2ncccc2Cl)CCN1c1cc(-c2ccc3ccccc3c2)nc(N2CCOCC2)n1 [Example 492, 4-[4-[(2R)-4-(3-chloropyridin-2-yl)-2-methylpiperazin-1-yl]-6-(2-naphthyl)pyrimidin-2-yl]morpholine]
≤ 1000 nM | Cc1ccc(-c2cc(N3CCN(c4ncccc4C#N)C[C@H]3C)nc(N3CCOCC3)n2)cc1F [Example 493, 2-{(3R)-4-[6-(3-fluoro-4-methylphenyl)-2-morpholin-4-ylpyrimidin-4-yl]-3-methylpiperazin-1-yl}nicotinonitrile]
≤ 1000 nM | Cc1ccc(-c2cc(N3CCN(c4ncccc4C)C[C@H]3C)nc(N3CCOCC3)n2)cc1F [Example 494, 4-{4-(3-fluoro-4-methylphenyl)-6-[(2R)-2-methyl-4-(3-methylpyridin-2-yl)piperazin-1-yl]pyrimidin-2-yl}morpholine]
≤ 1000 nM | Cc1ccc(-c2cc(N3CCN(c4ncccc4C(F)(F)F)C[C@H]3C)nc(N3CCOCC3)n2)cc1F [Example 495, 4-(4-(3-fluoro-4-methylphenyl)-6-{(2R)-2-methyl-4-[3-(trifluoromethyl)pyridin-2-yl]piperazin-1-yl}pyrimidin-2-yl)morpholine]
≤ 1000 nM | Cc1ccc(-c2cc(N3CCN(c4ncccc4Cl)C[C@H]3C)nc(N3CCOCC3)n2)cc1F [Example 496, 4-[4-[(2R)-4-(3-chloropyridin-2-yl)-2-methylpiperazin-1-yl]-6-(3-fluoro-4-methylphenyl)pyrimidin-2-yl]morpholine]
≤ 1000 nM | Cc1cc(-c2cc(N3CCN(c4ncccc4C(F)(F)F)C[C@H]3C)nc(N3CCOCC3)n2)ccc1F [Example 497, 4-(4-(4-fluoro-3-methylphenyl)-6-{(2R)-2-methyl-4-[3-(trifluoromethyl)pyridin-2-yl]piperazin-1-yl}pyrimidin-2-yl)morpholine]
≤ 1000 nM | Cc1cc(-c2cc(N3CCN(c4ncccc4Cl)C[C@H]3C)nc(N3CCOCC3)n2)ccc1F [Example 498, 4-[4-[(2R)-4-(3-chloropyridin-2-yl)-2-methylpiperazin-1-yl]-6-(4-fluoro-3-methytphenyl)pyrimidin-2-yl]morpholine]

IC50 | SMILES
≤ 1000 nM | CC(C)c1cccc(-c2cc(N3CCN(c4ncccc4C#N)C[C@H]3C)nc(N3CCOCC3)n2)c1 [Example 499, 2-{(3R)-4-[6-(3-isopropylphenyl)-2-morpholin-4-ylpyrimidin-4-yl]-3-methylpiperazin-1-yl}nicotinonitrile]
≤ 1000 nM | Cc1cccnc1N1CCN(c2cc(-c3cccc(C(C)C)c3)nc(N3CCOCC3)n2)[C@H](C)C1 [Example 500, 4-{4-(3-isopropylphenyl)-6-[(2R)-2-methyl-4-(3-methylpyridin-2-yl)piperazin-1-yl]pyrimidin-2-yl}morpholine]
≤ 1000 nM | CC(C)c1cccc(-c2cc(N3CCN(c4ncccc4C(F)(F)F)C[C@H]3C)nc(N3CCOCC3)n2)c1 [Example 501, 4-(4-(3-isopropylphenyl)-6-{(2R)-2-methyl-4-[3-(trifluoromethyl)pyridin-2-yl]piperazin-1-yl}pyrimidin-2-yl)morpholine]
≤ 1000 nM | CC(C)c1cccc(-c2cc(N3CCN(c4ncccc4Cl)C[C@H]3C)nc(N3CCOCC3)n2)c1 [Example 502, 4-[4-[(2R)-4-(3-chloropyridin-2-yl)-2-methylpiperazin-1-yl]-6-(3-isopropylphenyl)pyrimidin-2-yl]morpholine]
≤ 1000 nM | CC(C)c1ccc(-c2cc(N3CCN(c4ncccc4C#N)C[C@H]3C)nc(N3CCOCC3)n2)cc1 [Example 503, 2-{(3R)-4-[6-(4-isopropylphenyl)-2-morpholin-4-ylpyrimidin-4-yl]-3-methylpiperazin-1-yl}nicotinonitrile]
≤ 1000 nM | Cc1cccnc1N1CCN(c2cc(-c3ccc(C(C)C)cc3)nc(N3CCOCC3)n2)[C@H](C)C1 [Example 504, 4-{4-(4-isopropylphenyl)-6-[(2R)-2-methyl-4-(3-methylpyridin-2-yl)piperazin-1-yl]pyrimidin-2-yl}morpholine]
≤ 1000 nM | CC(C)c1ccc(-c2cc(N3CCN(c4ncccc4Cl)C[C@H]3C)nc(N3CCOCC3)n2)cc1 [Example 505, 4-[4-[(2R)-4-(3-chloropyridin-2-yl)-2-methylpiperazin-1-yl]-6-(4-isopropylphenyl)pyrimidin-2-yl]morpholine]
≤ 1000 nM | Cc1ccc(-c2cc(N3CCN(c4ncccc4C#N)C[C@H]3C)nc(N3CCOCC3)n2)cc1C [Example 506, 2-{(3R)-4-[6-(3,4-dimethylphenyl)-2-morpholin-4-ylpyrimidin-4-yl]-3-methylpiperazin-1-yl}nicotinonitrile]
≤ 1000 nM | Cc1ccc(-c2cc(N3CCN(c4ncccc4C)C[C@H]3C)nc(N3CCOCC3)n2)cc1C [Example 507, 4-[4-(3,4-dimethylphenyl)-6-[(2R)-2-methyl-4-(3-methylpyridin-2-yl)piperazin-1-yl]pyrimidin-2-yl}morpholine]
≤ 1000 nM | Cc1ccc(-c2cc(N3CCN(c4ncccc4Cl)C[C@H]3C)nc(N3CCOCC3)n2)cc1C [Example 508, 4-[4-[(2R)-4-(3-chloropyridin-2-yl)-2-methylpiperazin-1-yl]-6-(3,4-dimethylphenyl)pyrimidin-2-yl]morpholine]
≤ 1000 nM | CCc1ccc(-c2cc(N3CCN(c4ncccc4C#N)C[C@H]3C)nc(N3CCOCC3)n2)cc1 [Example 509, 2-{(3R)-4-[6-(4-ethylphenyl)-2-morpholin-4-ylpyrimidin-4-yl]-3-methylpiperazin-1-yl}nicotinonitrile]
≤ 1000 nM | CCc1ccc(-c2cc(N3CCN(c4ncccc4C)C[C@H]3C)nc(N3CCOCC3)n2)cc1 [Example 510, 4-{4-(4-ethylphenyl)-6-[(2R)-2-methyl-4-(3-methylpyridin-2-yl)piperazin-1-yl]pyrimidin-2-yl}morpholine]
≤ 1000 nM | CCc1ccc(-c2cc(N3CCN(c4ncccc4Cl)C[C@H]3C)nc(N3CCOCC3)n2)cc1 [Example 511, 4-[4-[(2R)-4-(3-chloropyridin-2-yl)-2-methylpiperazin-1-yl]-6-(4-ethylphenyl)pyrimidin-2-yl]morpholine]
≤ 1000 nM | CCCc1ccc(-c2cc(N3CCN(c4ncccc4C#N)C[C@H]3C)nc(N3CCOCC3)n2)cc1 [Example 512, 2-{(3R)-3-methyl-4-[2-morpholin-4-yl-6-(4-propylphenyl)pyrimidin-4-yl]piperazin-1-yl}nicotinonitrile]
≤ 1000 nM | CCCc1ccc(-c2cc(N3CCN(c4ncccc4Cl)C[C@H]3C)nc(N3CCOCC3)n2)cc1 [Example 513, 4-[4-[(2R)-4-(3-chloropyridin-2-yl)-2-methylpiperazin-1-yl]-6-(4-propylphenyl)pyrimidin-2-yl]morpholine]
≤ 1000 nM | CCc1cccc(-c2cc(N3CCN(c4ncccc4C#N)C[C@H]3C)nc(N3CCOCC3)n2)c1 [Example 514, 2-{(3R)-4-[6-(3-ethylphenyl)-2-morpholin-4-ylpyrimidin-4-yl]-3-methylpiperazin-1-yl}nicotinonitrile]
